Assay results as given in patent US20220144850A1, “INDOLO HEPTAMYL OXIME ANALOGUE AS PARP INHIBITOR” (Chia Tai Tianqing Pharmaceutical Group Co., Ltd., priority 2019, published 2022).

Legend:
Format in all cases: in vitro ADME
[1] = biological target: T1, CYP3A4-M (Homo sapiens, UniProt P08684); experiment: Inhibition against cytochrome P450 isoenzyme, human liver microsomes
T1 construct: a human liver microsome solution; from tissue; host or cells: human liver microsomes
Method: (§1) Experimental Example 6: Study on Inhibition Against Cytochrome P450 Isoenzyme
(§2) The inhibition of the test compounds against different subtypes of the human cytochrome P450 isoenzyme was determined. Test compounds, a standard inhibitor (100×final concentration) and a mixed substrate working solution were prepared; the microsomes frozen in a refrigerator at −80° C. were taken out and thawed. 2 μL of a solution of the test compound and the standard inhibitor was added to corresponding wells, and 2 μL of a corresponding solvent was added to a non-inhibitor control (NIC) well and a blank control (Blank) well; then, 20 μL of a solution of mixed substrate was added to corresponding wells except for the Blank well (adding 20 μL of PB to the Blank well); a human liver microsome solution (marking the date after use and immediately putting back to a refrigerator) was prepared and then added to all wells at 158 μL per well; the sample plate was put into a 37° C. water bath for pre-incubation, and then a coenzyme factor (NADPH) solution was prepared; after 10 min, the NADPH solution was added to all the wells at 20 μL per well, and the sample plate was shaken to mix the mixture well and then incubated in a 37° C. water bath for 10 min; at corresponding time points, 400 μL of cold acetonitrile solution (internal standard: 200 ng/mL tolbutamide and labetalol) was added to stop the reaction; after being mixed well, the mixture in the sample plate was centrifuged at 4,000 rpm for 20 min to precipitate proteins; 200 μL of supernatant was collected and added into 100 μL of water, and the mixture was mixed well and then assayed by LC/MS/MS.

[2] = biological target: T2, CYP2D6 (Homo sapiens, UniProt P10635); experiment: as above
T2 construct: a human liver microsome solution; from tissue; host or cells: human liver microsomes
Method: as §1, §2

[3] = biological target: T3, CYP1A2 (Homo sapiens, UniProt P05177); experiment: as above
T3 construct: a human liver microsome solution; from tissue; host or cells: human liver microsomes
T3 sequence (P05177 1-516): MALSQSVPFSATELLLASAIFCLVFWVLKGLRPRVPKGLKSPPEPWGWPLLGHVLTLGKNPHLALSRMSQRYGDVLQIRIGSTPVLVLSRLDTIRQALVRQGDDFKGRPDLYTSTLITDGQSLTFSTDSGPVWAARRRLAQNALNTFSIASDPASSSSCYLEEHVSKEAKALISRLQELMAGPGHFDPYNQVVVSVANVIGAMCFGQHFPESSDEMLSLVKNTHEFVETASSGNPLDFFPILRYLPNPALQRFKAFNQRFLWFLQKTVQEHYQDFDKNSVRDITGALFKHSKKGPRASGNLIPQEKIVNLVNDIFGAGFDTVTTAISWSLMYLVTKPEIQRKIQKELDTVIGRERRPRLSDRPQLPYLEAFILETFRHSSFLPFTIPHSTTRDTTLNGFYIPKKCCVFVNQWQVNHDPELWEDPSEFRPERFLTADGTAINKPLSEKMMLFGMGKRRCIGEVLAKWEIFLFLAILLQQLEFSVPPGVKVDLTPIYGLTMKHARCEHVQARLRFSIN
Method: as §1, §2

[4] = biological target: T4, CYP2C19 (Homo sapiens, UniProt P33261); experiment: as above
T4 construct: a human liver microsome solution; from tissue; host or cells: human liver microsomes
Method: as §1, §2

[5] = biological target: T5, CYP2C9 (Homo sapiens, UniProt P11712); experiment: as above
T5 construct: a human liver microsome solution; from tissue; host or cells: human liver microsomes
Method: as §1, §2

[6] = Plasma protein binding rate, human plasma (equilibrium dialysis); settings: dialysis 4 h at 37° C.
Method: (§3) Experimental Example 5: Study on Plasma Protein Binding Rate
(§4) The protein binding rates of the compounds disclosed herein in plasma of human, CD-1 mice and SD rats were determined. 796 μL of blank plasma was taken from human, CD-1 mice and SD rats, and added with 4 μL of test compound working solution (400. μM) or warfarin working solution (400 μM) to achieve a final concentration of 2 μM of both the test compound and the warfarin in the plasma sample. The samples were mixed well. The final concentration of organic phase DMSO was 0.5%; 50 μL of test compound and warfarin plasma sample was pipetted into a sample receiving plate (three parallels), and a corresponding volume of blank plasma or buffer was immediately added such that the final volume of each sample well was 100 μL. The volume ratio of plasma to dialysis buffer was 1:1, and 400 μL of stop solution was added to these samples, which were used as TO samples for determination of recovery rate and stability. The TO samples were stored at 2-8° C. for subsequent treatment with other dialyzed samples; 150 μL of the test compound and warfarin plasma sample was added to a drug delivery end of each dialysis well, and 150 μL of blank dialysis buffer was added to a corresponding receiving end of the dialysis well. The dialysis plate was then sealed with a gas permeable membrane and placed in a humid, 5% CO2 incubator and incubated at 37° C. for 4 h while shaking at about 100 rpm. After the dialysis was completed, 50 μL of the dialyzed buffer sample and dialyzed plasma sample were pipetted to a new sample receiving plate. A corresponding volume of corresponding blank plasma or buffer was added to the samples such that the final volume of each sample well was 100 μL, and the volume ratio of plasma to dialysis buffer was 1:1. All samples were subjected to LC/MS analysis after protein precipitation, and the protein binding rates and the recovery rates were calculated by the following formulas: protein unbinding rate (%)=100×drug concentration passing through dialysis membrane/drug concentration not passing through dialysate; protein binding rate (%)=100−protein unbinding rate (%); recovery rate (%)=100×(drug concentration passing through dialysis membrane+drug concentration not passing through dialysate)/total drug concentration before dialysis.

[7] = Plasma protein binding rate, SD rat plasma (equilibrium dialysis); settings: Sprague-Dawley, SD rats plasma, dialysis 4 h at 37° C.
Method: as §3, §4

T2 sequence (P10635 whole entry): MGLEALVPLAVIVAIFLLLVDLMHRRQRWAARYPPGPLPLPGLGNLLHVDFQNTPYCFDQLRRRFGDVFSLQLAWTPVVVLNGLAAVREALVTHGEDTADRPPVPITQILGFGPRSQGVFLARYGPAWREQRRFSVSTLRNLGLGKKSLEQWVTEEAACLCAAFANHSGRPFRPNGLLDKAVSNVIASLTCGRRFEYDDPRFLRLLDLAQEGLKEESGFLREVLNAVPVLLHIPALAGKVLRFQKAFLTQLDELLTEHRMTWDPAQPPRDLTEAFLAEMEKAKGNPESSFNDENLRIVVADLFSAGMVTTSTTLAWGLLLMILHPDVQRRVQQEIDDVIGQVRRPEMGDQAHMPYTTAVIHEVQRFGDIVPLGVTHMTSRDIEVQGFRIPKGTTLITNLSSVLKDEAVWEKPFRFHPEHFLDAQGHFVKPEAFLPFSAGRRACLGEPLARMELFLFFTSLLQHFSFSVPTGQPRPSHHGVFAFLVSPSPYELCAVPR
T5 sequence (P11712 whole entry): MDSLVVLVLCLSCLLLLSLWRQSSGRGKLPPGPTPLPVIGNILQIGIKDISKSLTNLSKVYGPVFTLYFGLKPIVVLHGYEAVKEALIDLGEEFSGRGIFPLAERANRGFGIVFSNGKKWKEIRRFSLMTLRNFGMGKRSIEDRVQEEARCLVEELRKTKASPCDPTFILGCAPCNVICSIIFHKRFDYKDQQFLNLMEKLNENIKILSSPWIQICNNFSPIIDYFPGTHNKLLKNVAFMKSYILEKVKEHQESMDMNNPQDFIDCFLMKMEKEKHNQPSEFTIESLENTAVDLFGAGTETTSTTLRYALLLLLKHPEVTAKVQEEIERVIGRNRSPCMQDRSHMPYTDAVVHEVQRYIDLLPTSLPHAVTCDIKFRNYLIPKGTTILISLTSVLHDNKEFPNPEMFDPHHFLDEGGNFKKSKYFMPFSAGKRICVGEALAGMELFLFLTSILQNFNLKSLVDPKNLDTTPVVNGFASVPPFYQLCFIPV
T4 sequence (P33261 whole entry): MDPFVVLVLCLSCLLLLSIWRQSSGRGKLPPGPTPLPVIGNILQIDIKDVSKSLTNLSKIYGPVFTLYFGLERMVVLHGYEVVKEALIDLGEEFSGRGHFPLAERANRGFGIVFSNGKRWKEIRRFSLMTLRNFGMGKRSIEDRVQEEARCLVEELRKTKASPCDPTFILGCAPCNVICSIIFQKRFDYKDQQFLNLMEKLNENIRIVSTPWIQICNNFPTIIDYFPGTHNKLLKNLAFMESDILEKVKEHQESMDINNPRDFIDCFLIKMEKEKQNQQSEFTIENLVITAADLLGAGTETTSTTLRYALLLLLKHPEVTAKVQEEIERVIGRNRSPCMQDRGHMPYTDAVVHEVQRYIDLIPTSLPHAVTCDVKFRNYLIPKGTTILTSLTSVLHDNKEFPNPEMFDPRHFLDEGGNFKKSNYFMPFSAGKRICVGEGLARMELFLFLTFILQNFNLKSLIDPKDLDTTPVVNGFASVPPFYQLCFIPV
T1 sequence (P08684 whole entry): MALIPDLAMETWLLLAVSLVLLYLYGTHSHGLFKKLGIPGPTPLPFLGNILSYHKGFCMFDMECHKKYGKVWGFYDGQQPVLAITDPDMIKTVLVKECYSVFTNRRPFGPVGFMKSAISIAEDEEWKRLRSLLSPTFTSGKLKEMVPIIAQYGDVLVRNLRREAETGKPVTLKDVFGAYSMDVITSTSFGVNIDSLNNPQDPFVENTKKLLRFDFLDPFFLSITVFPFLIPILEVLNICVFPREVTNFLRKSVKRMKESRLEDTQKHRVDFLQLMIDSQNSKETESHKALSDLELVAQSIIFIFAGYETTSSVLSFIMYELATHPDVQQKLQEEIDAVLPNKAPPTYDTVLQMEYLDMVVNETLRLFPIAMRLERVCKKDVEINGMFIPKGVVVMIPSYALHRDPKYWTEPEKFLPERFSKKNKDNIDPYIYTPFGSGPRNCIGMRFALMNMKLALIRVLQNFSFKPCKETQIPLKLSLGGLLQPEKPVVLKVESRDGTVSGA

Row | IC50 [1] | IC50 [2] | IC50 [3] | IC50 [4] | IC50 [5] | fraction unbound at 4 h, 2 μM [6] | fraction unbound at 4 h, 2 μM [7] | Structure (SMILES)
1 | 14.1 µM | 20.2 µM | > 50 µM | 3.31 µM | 49.7 µM | 0.057 | 0.097 | CC1(c2ccc(-c3[nH]c4cc(F)cc5c4c3CONC5=O)cc2F)CCCN1 (single isomer, unassigned) [Example 26_A]
2 |  |  |  |  |  | 0.181 | 0.176 | CC1(c2ccc(-c3[nH]c4cccc5c4c3CONC5=O)cc2)CCCN1 (stereo not drawn) [Example 6_A]
3 | > 50 µM | 6.98 µM | 29.5 µM | 17.2 µM | > 50 µM | 0.073 | 0.036 | O=C1NOCc2c(-c3ccc(C4CCCN4)cc3)[nH]c3cc(F)cc1c23 (single isomer, unassigned) [Example 24_A]
4 | 35 µM | 19.2 µM | > 50 µM | 15.5 µM | > 50 µM | 0.235 | 0.035 | O=C1NOCc2c(-c3ccc(C4CCCN4)c(F)c3)[nH]c3cccc1c23 (stereo not drawn) [Example 11_A]

Row | Structure (SMILES) | IC50 [1] | IC50 [2] | IC50 [3] | IC50 [4] | IC50 [5] | fraction unbound at 4 h, 2 μM [6] | fraction unbound at 4 h, 2 μM [7]
5 | CC1(c2ccc(-c3[nH]c4cc(F)cc5c4c3CONC5=O)cc2)CCCN1 (stereo not drawn) [Example 25_A] | 32.9 µM | 11.6 µM | > 50 µM | 8.33 µM | > 50 µM | 0.149 | 0.077
